Source: patent publication US5399703A, “Tetrazole derivatives and drugs” (Nippon Shinyaku Company, Limited, priority 1990, dated 1995)
Like-named read-outs stand apart in the source and are kept apart here.

Assays:
[1] = target: T1, LTD4 receptor (Cavia porcellus, UniProt Q2NNR5); test: Leukotriene D4 (LTD4) binding assay (3H-LTD4, guinea pig lung membrane fraction); details: for IC50: guinea pig lung membrane, 3H-LTD4, 25° C., 1 hour
T1 construct: membrane fraction prepared from the guinea pig lung; from tissue; host or cells: guinea pig lung membrane fraction
T1 sequence (Q2NNR5 1-340): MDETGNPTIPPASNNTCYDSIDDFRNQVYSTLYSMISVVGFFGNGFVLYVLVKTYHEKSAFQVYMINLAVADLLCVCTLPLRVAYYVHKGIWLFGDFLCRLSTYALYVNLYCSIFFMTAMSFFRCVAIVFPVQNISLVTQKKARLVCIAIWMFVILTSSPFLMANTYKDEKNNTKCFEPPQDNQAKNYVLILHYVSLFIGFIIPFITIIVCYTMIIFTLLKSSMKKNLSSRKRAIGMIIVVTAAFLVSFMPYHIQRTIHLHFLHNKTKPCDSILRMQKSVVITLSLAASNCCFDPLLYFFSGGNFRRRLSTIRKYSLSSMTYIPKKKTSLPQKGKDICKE
Description: 1) Leukotriene D4 (LTD4) binding assay
First, 0.2 pmol of ^3 H-LTD4 and 100 μg of the membrane fraction prepared from the guinea pig lung were incubated at 25° C. for 1 hour and then the reaction mixture was filtered through a glass filter. The radioactivity of ^3 H-LTD4 bound to the membrane remaining on the glass filter was determined and this value was regarded as total binding (total).
Similarly, 100 μg of the membrane fraction was incubated with 0.2 pmol of ^3 H-LTD4 in the presence of a large excess of cold LTD4 (0.1 nmol) at 25° C. for 1 hour and the radioactivity of ^3 H-LTD4 bound to the membrane was determined and regarded as nonspecific binding (NSB).
Specific binding (SB) of ^3 H-LTD4 was calculated according to expression (1).
To investigate the effect of the test substance on LTD4 receptor binding, the test substance was added at the determination of total binding and the total binding in the presence of the test substance (total') was determined. The percent inhibition was calculated according to expression (2).
(total-total')/SB×100 (2)

[2] = test system: endogenous LT-induced airway contractile response in guinea pigs; test: Effect on endogenous leukotriene (LT)-induced experimental asthma; format: in vivo; details: guinea pig; for ED50: Cavia porcellus
[3] = test system: antigen-induced airway contractile response in guinea pigs; test: Effect on experimental asthma (antigen-induced airway contractile response); format: in vivo; details: guinea pig
Description: (4) Effect on experimental asthma
The airway contractile response to intravenous administration of an antigen (benzylpenicilloyl-bovine serum albumin) to guinea pigs passively senstitized with anti-benzylpenicilloyl-bovine gamma globulin guinea pig serum was determined by the Konzett-Rossler method.
The test substance suspended in 0.5% methylcellulose was administered orally and 3 hours later, the airway contractile response caused by antigen-antibody reaction was determined. With the response on complete obstruction of the airway cannula with a clamp taken as 100% contraction, the maximal airway contractile response (expressed in percent) caused by antigen antibody reaction was determined. From this value, the percent inhibition, relative to the control, by the test substance was determined.

SMILES: CCCCOC(=O)COc1ccc(C(=O)Nc2ccccc2Sc2ccccc2-c2nnn[nH]2)cc1 [Example 67, Butyl 4-[2-[2-(1H-tetrazol-5-yl)phenylthio]phenylcarbamoyl]phenoxyacetate]
- IC50 [1]: 3340 nM
- Endogenous LT-induced experimental asthma p.o. inhibition (%) ([2]; at 0.3 mg/kg): 61.2%
- Experimental asthma p.o. inhibition (%) ([3]; at 10 mg/kg): 82.6%

SMILES: CCN(CC)C(=O)COC(=O)COc1ccc(C(=O)Nc2ccccc2Sc2ccccc2-c2nnn[nH]2)cc1 [Example 105, N,N-Diethylcarbamoylmethyl 4-[2-[2-(1H-tetrazol-5-yl)phenylthio]phenylcarbamoyl]phenoxyacetate]
- IC50 [1]: 18200 nM
- Endogenous LT-induced experimental asthma p.o. inhibition (%) ([2]; at 0.3 mg/kg): 29.4%
- Experimental asthma p.o. inhibition (%) ([3]; at 10 mg/kg): 87.9%

SMILES: O=C(Nc1ccccc1Sc1ccccc1-c1nnn[nH]1)c1ccc(OCCCCc2ccccc2)cc1 [Example 4, N-[2-[2-(1H-Tetrazol-5-yl)phenylthio]phenyl]-4-(4-phenylbutoxy)benzamide]
- IC50 [1]: 35.8 nM
- Endogenous LT-induced experimental asthma p.o. inhibition (%) ([2]; at 30 mg/kg): 30.9%

SMILES: CCCCCCOc1ccc(C(=O)Nc2ccccc2Sc2ccccc2-c2nnn[nH]2)cc1 [Example 7, N-[2-[2-(1H-Tetrazol-5-yl)phenylthio]phenyl]-4-hexyloxybenzamide]
- IC50 [1]: 180 nM
- ED50 ([2]; po, 3 hours before antigen, read-out: Endogenous LT-induced experimental asthma p.o. ED50): 0.111 mg/kg
- ED50 ([3]; Cavia porcellus, po, 3 hours before antigen): 3.52 mg/kg

SMILES: CCCc1c(OCC(O)COc2ccc3c(=O)cc(C(=O)O)oc3c2CCC)ccc(C(C)=O)c1O (stereo not drawn) [C, reference compound]
- IC50 [1]: 3820 nM
- ED50 ([2]; iv, read-out: Endogenous LT-induced experimental asthma ED50 (i.v.)): 0.2 mg/kg

SMILES: O=C(O)COc1ccc(C(=O)Nc2ccccc2Sc2ccccc2-c2nnn[nH]2)cc1 [Example 6, 4-[2-[2-(1H-Tetrazol-5-yl)phenylthio]phenylcarbamoyl]phenoxyacetic acid]
- inhibition at 10 µM ([1]; at 10^-5 M): 28.9%
- Endogenous LT-induced experimental asthma p.o. inhibition (%) ([2]; at 0.1 mg/kg): 36.2%
- Experimental asthma p.o. inhibition (%) ([3]; at 30 mg/kg): 37.9%

SMILES: CCCC/C=C/COc1ccc(C(=O)Nc2ccccc2Sc2ccccc2-c2nnn[nH]2)cc1 [Example 14, (E)-N-[2-[2-(1H-Tetrazol-5-yl)phenylthio]phenyl]-4-(2-heptenyloxy)benzamide]
- IC50 [1]: 22 nM
- Endogenous LT-induced experimental asthma p.o. inhibition (%) ([2]; at 30 mg/kg): 58.3%
